{"source": "patent US8552058B2", "about": "“Application of L-n-butylphthalide in preventing and treating dementia” (CSPC Zhongqi Pharmaceutical Technology (Shijazhuang) Co., …, priority 2004, dated 2013)", "key": {"[1]": {"tested_on": "rats with permanent ligation of bilateral common carotid arteries (2-VO model)", "experiment": "Morris' water maze (training latency, platform exploration) in 2-VO hypoperfusion model", "format": "in vivo, Wistar rats", "details": "for amelioration of impaired short-term memory and spatial orientation (overall conclusion): 2-VO rats with poor blood supply to brain, L-NBP at 10 mg/kg, 10 mg/kg"}, "[2]": {"tested_on": "rats with continuous perfusion of Aβ (1-40) into lateral ventricle", "experiment": "Morris' water maze and working memory test after continuous i.c.v. perfusion of Aβ (1-40)", "format": "in vivo, Wistar rats", "details": "for search strategy after 5 days of training / latency after 5 days of training: Aβ (1-40) i.c.v. rats; for latency after 5 days of training: mean±standard error, model 30.18±4.81, sham 13.02±2.77, p<0.05 vs model", "experimental": "For Morris' Water Maze Automatic Monitor and experimental protocols, reference may be made to the experiments of learning and memory damage of rats induced by brain hypoperfusion.\nMale Wistar rats, which were 10-weeks old and weighed approximately 280 grams, were used. One animal was placed in one cage, while the room temperature was kept at 23° C., with food and water freely accessible. Rats were anaesthetized with sodium pentobarbital (40 mg/kg), and were fixed to stereotaxic apparatus with the position of ventral decubitus. Head skin was cut open, a cannula for Aβ (1-40) perfusion was implanted into right ventricle. According to the stereotaxic profile of rat brain by Paxions and Watson, the implantation site was located 0.3 mm behind and 1.1 mm in the right side of anterior fontanelle, with the depth of 4.0 mm. The cannula was connected to a micro-osmotic pump. The pump was placed on the back of the rat. Aβ (1-40) was dissolved in 35% acetonitrile/0.1% trifluroacetic acid, and was continuously perfused intracerebroventricularly (i.c.v.) at 300 pmol/day, while only the solvent (35% acetonitrile/0.1% trifluroacetic acid) was perfused in the control group.\nRats were randomly classified into […] groups, with 10 animals per group. 1) the sham surgery group: only 35% acetonitrile/0.1% trifluroacetic acid+solvent was perfused into the ventricles of the rats; 2) the model group: Aβ (1-40)+solvent; 3) Aβ (1-40)+L-NBP 10 mg/kg group; 4) Aβ (1-40)+L-NBP 30 mg/kg group. Respective drug or solvent was drenched since the 2nd day after the surgery. The water maze experiment was performed on the 9-13 day after the surgery, while the platform exploration experiment was performed on the 13th day, and the working memory test was performed on the 14-16th days. Animals were decapitated to remove brains for biochemical assay on the 17th day. In all ethological tests, medicines were administered 40 minutes prior to the respective test.\nThe water maze training experiment was performed on the 9-13th day after icv Aβ (1-40), and the platform exploration experiment was performed on the 13 day after that. The working memory test was performed on the 14-16th day after icv Aβ (1-40) (see the figure above), which investigated the ability of rapid learning and spatial memory in animals when the platform and quadrant were changed, based on the fact that animals had memorized in some extent after training and platform exploration experiment. Experimental procedure was similar to the standard water maze training experiment except that the platform's location was changed every day. The experiment was conducted five times every day, allowing the rats to start swimming from five water-entry sites respectively. […] In the following 4 experiments, the location of the platform was kept constant, yet the water entry sites were within different quadrants. The latency of working memory was calculated by averaging those of the 2-5th experiments, and the ability of working memory of each rat was calculated by averaging the experimental values in 3 days.\nAll results were expressed in mean±standard error. Comparison of latencies between groups in water maze experiment was performed using two-factor analysis of variance in replicate. Comparison between groups was performed using post hoc LSD or Turkey test. Platform exploration test in water maze experiment, working memory test and biochemical assay were analyzed using one-factor analysis of variance. A difference was considered significant when p<0.05."}}, "note": "“Also recorded” adds a separate entry of the source.", "data": [{"smiles": "CCCC[C@@H]1OC(=O)c2ccccc21", "note": "[L-NBP, L-n-butylphthalide]", "values": [{"measurement": "detention time in the target quadrant (platform exploration test, 60 seconds free swimming)", "setting": "[1]; 10 mg/kg oral, 2-VO rats, mean±standard error, solvent control 14.40±0.73, sham 17.73±1.19, p<0.05 vs solvent control", "result": "17.62 ± 1.27", "unit": "s"}, {"measurement": "latency (time required for finding the platform) after 5 days of training", "setting": "[1]; 10 mg/kg oral, 2-VO rats, mean±standard error, solvent control 47.6±5.88, sham surgery 12.6±3.34, p<0.001 vs solvent control", "result": "26.85 ± 5.98", "unit": "s"}, {"measurement": "search strategy after 5 days of training", "setting": "[1]; 10 mg/kg oral, 2-VO rats, solvent control still peripheral and random", "result": "changed from peripheral and random to purposive and linear"}, {"measurement": "amelioration of impaired short-term memory and spatial orientation (overall conclusion)", "setting": "[1]", "result": "could significantly ameliorate"}, {"measurement": "amelioration of impaired short-term memory and spatial orientation (overall conclusion)", "setting": "[1]; listed as L-n-butylphthalide", "result": "could significantly improve; also recorded: could significantly ameliorate"}, {"measurement": "search strategy after 5 days of training", "setting": "[2]; 10 mg/kg oral", "result": "changed from peripheral and random to purposive and linear"}, {"measurement": "latency after 5 days of training", "setting": "[2]; 10 mg/kg oral", "result": "27.28 ± 6.42", "unit": "s"}, {"measurement": "search strategy after 5 days of training", "setting": "[2]; 30 mg/kg oral", "result": "changed from peripheral and random to purposive and linear"}, {"measurement": "latency after 5 days of training", "setting": "[2]; 30 mg/kg oral", "result": "25.88 ± 5.51", "unit": "s"}, {"measurement": "working memory (latency in 2-5th experiments)", "setting": "[2]; 10 and 30 mg/kg, days 14-16 after Aβ (1-40), model 14.05±1.88 s, sham 9.15±0.91 s, p<0.01", "result": "can significantly improve the working memory ability in a dose-dependent way; also recorded: could improve the working memory of rats in a dose-dependent manner"}, {"measurement": "amelioration of impaired short-term memory and stereotaxic memory (overall conclusion)", "setting": "[2]; continuous perfusion of Aβ (1-40) into lateral ventricle, rats, Morris' water maze", "result": "could significantly ameliorate"}]}]}
